{"source": "patent US20190211317A1", "about": "“PEPTIDES AND NANOPARTICLES FOR INTRACELLULAR DELIVERY OF GENOME-EDITING MOLECULES” (Aadigen, LLC, priority 2016, published 2019)", "key": {"[1]": {"tested_on": "endogenous hPD1 gene in JURKAT and K562 cells", "experiment": "hPD1 gene editing in T cell lines (T7E1 assay)", "format": "cell-based, human", "description": "CAS9 protein was preloaded with purified sgRNA at a molar ratio of 1:1 and incubated for 10 min prior to forming complexes with peptides.\n5×10^6 cells were washed twice with DPBS by centrifuging at 800 rpm for 5 minutes and resuspended in 100 ^l transfection buffer, and then transferred into the electroporation cuvette. An optimized program selected for both high transfection and high efficiency on T cells was used. After electroporation, cells were resuspended in 500 ^l pre-warmed AIM-V medium containing 10% FBS and incubated at 37° C. in 5% CO2. The transfection efficiency was evaluated after 48 hr by flow cytometry or T7E1 assay.\nRNAiMAX delivery method was used as positive control. Cells were either resuspended in or overlaid with 100 μl of preformed complexes, incubated for 3-5 min, and then 300 μl of DMEM was added. […] The indel frequency in the hPD1 gene was quantified using the T7E1 assay."}, "[2]": {"tested_on": "primary human fibroblasts and primary human hepatocytes", "experiment": "Toxicity of ADGN-100a/CAS9/gRNA in primary cells (MTT assay)", "format": "cell-based", "conditions": "both primary cell types", "description": "Cytotoxic response was measured 24 hours later by colorimetric MTT assay (Sigma, Germany). For MTT assay, cell culture medium was removed and replaced with PBS containing 2.5 mg/ml of MTT for 4 hours."}, "[3]": {"tested_on": "endogenous EMX1 gene in U2OS, HEPG2, K562 cells and primary human fibroblasts", "experiment": "EMX1 editing from CPP delivery of CAS9 protein/gRNA (T7E1)", "format": "cell-based", "conditions": "each of the cell types tested; 2.5 μg/5 μg CAS9/gRNA", "protocol": "CPP/CAS9/gRNA complexes were prepared by mixing preloaded CAS9/gRNA complexes (2.5 μg/5 μg CAS9/gRNA) with CPP peptides at a 20:1 molar ratio of CPP to cargo and incubating for 30 min at 37° C. prior to cell transfection. Cells were transfected according to the protocols described in Example 13a, and RNAiMAX-mediated delivery (Invitrogen Thermo Fisher France) was used as a control. EMX1 gene editing was analyzed at day 3 and day 6 by T7E1 assay and quantified using a Fragment Analyzer System."}, "PCSK9": {"tested_on": "PCSK9", "experiment": "In vivo CAS9 mRNA/gRNA targeting PCSK9: serum PCSK9 (ELISA)", "parameters": "species or system mouse", "protocol": "Polyadenylated and capped CAS9 mRNA was obtained from ThermoFisher, and gRNA (5 μg) targeting PCSK9 Exon 1 was obtained from Eurogentec. […] Free CAS9 mRNA/gRNA was injected as a control.\nBlood samples were collected by saphenous vein bleeds at multiple time points (day 3, 6, 10, and 21), collecting no more than 100 μl or 10% of total blood volume per week. Serum levels of PCSK9 were determined by ELISA using the Mouse Proprotein Convertase 9/PCSK9 Quantikine ELISA Kit (MPC-900, R&DSystems)."}, "[4]": {"tested_on": "EGFP reporter gene in EGFP-U2OS cells", "protocol": "ADGN-100 was evaluated for cellular delivery of a plasmid encoding CAS9 and gRNA targeting a specific site in the exogenous EGFP gene reporter in U2OS cells (EGFP-U2OS).\nStock solutions of amphipathic peptides were prepared at 1 mg/mL in distilled water and sonicated for 10 min.\nEGFP-U2OS cells containing a single integrated EGFP reporter gene were cultured in Dulbecco's Modified Eagle's Medium (DMEM), supplemented with 2 mM glutamine, 1% antibiotics (streptomycin 10,000 μg/mL, penicillin, 10,000 IU/mL) and 10% (w/v) foetal calf serum (FCS), at 37° C. in a humidified atmosphere containing 5% CO2. A total of 150,000 cells seeded in a 35 mm dish the day prior to transfection were grown to 50-60% confluence and overlaid with 200 μl of preformed complexes, incubated for 3-5 min, then 400 μl of DMEM was added. After 30 min incubation at 37° C., 1 mL of fresh DMEM containing 16% FCS was added to reach a final FCS concentration of 10%, without removing the overlay of CPP/CAS9-gRNA complexes. Cells were returned to the incubator for 72 hours.\nCAS9-induced double-strand break formation was analyzed using flow cytometry by monitoring the level of EGFP expression. […] Lipofectamine 2000 delivery was used as positive control."}}, "note": "Where two headings read alike, the source gives them in different places."}
{"smiles": "CC(C)C[C@H](NC(=O)[C@H](CCCNC(=N)N)NC(=O)[C@H](Cc1c[nH]c2ccccc12)NC(=O)[C@H](CCCNC(=N)N)NC(=O)[C@H](Cc1c[nH]c2ccccc12)NC(=O)CNC(=O)[C@H](C)NC(=O)[C@H](CO)NC(=O)[C@H](CCCNC(=N)N)NC(=O)[C@H](Cc1c[nH]c2ccccc12)NC(=O)[C@H](CCCCN)NC(=O)CCN)C(=O)N[C@@H](Cc1c[nH]c2ccccc12)C(=O)N[C@@H](CCCNC(=N)N)C(=O)N[C@H](C(=O)N[C@@H](CCCNC(=N)N)C(=O)N[C@@H](CO)C(=O)N[C@@H](Cc1c[nH]c2ccccc12)C(=O)N[C@@H](CO)C(=O)N[C@@H](CCCNC(=N)N)C(=O)O)C(C)C", "note": "[ADGN-100a]", "values": [{"measurement": "Mean indel Frequency ± s.e.m", "setting": "[1]; JURKAT, CAS9/sgRNA 2.5 μg/5 μg", "result": "70 ± 5", "unit": "%"}, {"measurement": "Mean indel Frequency ± s.e.m", "setting": "[1]; JURKAT, CAS9/sgRNA 5 μg/10 μg", "result": 72, "unit": "%"}, {"measurement": "Mean indel Frequency ± s.e.m", "setting": "[1]; JURKAT, CAS9/sgRNA 5 μg/10 μg, listed as ADGN400a", "result": "72 ± 2", "unit": "%"}, {"measurement": "Mean indel Frequency ± s.e.m", "setting": "[1]; K562, CAS9/sgRNA 2.5 μg/5 μg", "result": "68 ± 2", "unit": "%"}, {"measurement": "Mean indel Frequency ± s.e.m", "setting": "[1]; K562, CAS9/sgRNA 5 μg/10 μg", "result": 71, "unit": "%"}, {"measurement": "Mean indel Frequency ± s.e.m", "setting": "[1]; K562, CAS9/sgRNA 5 μg/10 μg, listed as ADGN400a", "result": "71 ± 5", "unit": "%"}, {"measurement": "toxicity", "setting": "[2]", "result": "less than 10%"}, {"measurement": "mean indel frequencies", "setting": "[3]", "result": "60-65%"}, {"measurement": "decrease of serum levels of PSCK9", "setting": "PCSK9; day 1, CAS9 mRNA 5 μg/gRNA 5 μg single i.v.", "result": 51, "unit": "%"}, {"measurement": "decrease of serum levels of PSCK9", "setting": "PCSK9; day 3", "result": 62, "unit": "%"}, {"measurement": "decrease of serum levels of PSCK9", "setting": "PCSK9; day 6", "result": 69, "unit": "%"}, {"measurement": "decrease of serum levels of PSCK9", "setting": "PCSK9; day 10", "result": 65, "unit": "%"}, {"measurement": "decrease of serum levels of PSCK9", "setting": "PCSK9; day 14", "result": 65, "unit": "%"}, {"measurement": "decrease of serum levels of PSCK9", "setting": "PCSK9; day 20", "result": 60, "unit": "%"}, {"measurement": "decrease in EGFP expression", "setting": "[4]; molar ratio 10:1 of ADGN-100a to each nucleic acid", "result": 23, "unit": "%"}, {"measurement": "decrease in EGFP expression", "setting": "[4]; molar ratio 20:1", "result": 38, "unit": "%"}]}
